We go through two compounds from US20080221115A1, “Use of long-chain alcohol derivatives for the treatment of alopecia areata” (priority 2007, published 2008).

Experiment [1] has as its system alopecia greata in C3H/HeJ mice. Particulars: for effective in treating the alopecia greata in C3H/HeJ mice: conclusion in words from Example 1; for Average score: hair amount and hair growth in biopsies from mustache, face, head, neck, back, stomach graded 1 (no hair) to 5 (full growth), averaged per group, day 93, negative control (PBS) 2.48; for Average score / Overall score: 25 mg/ml in PBS, topical; for Overall score: overall appearance graded on a scale of 1 (50% of mouse hairless) to 5 (full hair), group mean, 40 μl per cm^2 lesion, day 93 from the beginning of the treatment, negative control (PBS) 2.7.
Procedure: The young mice will develop the disease subsequent to grafting.
Lesional grafts from old C3H/HeJ mice were grafted onto young C3H/HeJ mice. On day 30-40 post-graft the mice were randomized into groups with approximately the same degree of alopecia greata pathology.
Group 1: negative control, phosphate buffered saline (PBS).
Treatment was initiated on the day of randomization into groups. Mice were treated by providing 40 μl of solution per cm^2 lesion. The solution was evenly spread and was allowed to soak into the skin. Mice were observed twice weekly and the size of patches was measured and documented.
Treatment solutions were prepared freshly each day.
At the end of the study, skin biopsies were evaluated in a blinded manner. The hair amount and hair growth from biopsies from mice mustache, face, head, neck, back, and stomach were graded from 1 to 5. A rating of 1 represented no hair, and a rating of 5 represented full growth. These scores were calculated for each mouse and averaged, and the average for each group is shown below as “average score.”
In addition, the mice were graded based on their overall appearance on a scale of 1 to 5 for “overall score.”
Score 1=50% of mouse hairless.
Score 2=20-40% of mouse hairless.
Score 3=hairless patch covering up to 20% of mouse.
Score 4=thin hair, or local small hairless patch.
There were 7 mice in each of the test compound groups and 5 mice in the negative control group.
The scoring occurred on day 93 from the beginning of the treatment.

Experiment [2] deals with delayed-type hypersensitivity model in mice. Particulars: disclosed in WO 2004/032824; cited from earlier work.
In a further experiment the test system is EAE model in rats. Particulars: disclosed in WO 2004/032824; cited from earlier work.

Molecules are shown by their SMILES.

As to `CCCCCCCC/C=C\CCCCCCCCOC(=O)C(N)c1ccccc1.Cl` (stereo not drawn) [compound 1, amino-phenyl-acetic acid octadec-(Z)-9-enyl ester HCl], in experiment [1], the “effective in treating the alopecia greata in C3H/HeJ mice” value is reported as “effective”, the Average score was determined as 3.11 and the Overall score stood at 3.5. The “results in a delayed-type hypersensitivity model in mice” value in experiment [2] is “positive results”.
`CCCCCCCC/C=C\CCCCCCCCOC(=O)CN1CCNCC1.O=C(O)C(O)C(O)C(=O)O` [compound 2]: in experiment [1], the “effective in treating the alopecia greata in C3H/HeJ mice” value is “effective”, the Average score amounted to 2.91 and the Overall score is 3.5. In addition, the “results in an EAE model in rats” value in the experiment with EAE model in rats is recorded as “positive results”. Also, in experiment [2], the “results in a delayed-type hypersensitivity model in mice” value is listed as “positive results”.
